Assay results published in patent US8497245B2, “Trypsin-like serine protease inhibitors, their preparation and use as selective inhibitors of the clotting factors IIa and Xa” (The Medicines Company (Leipzig) GmbH, priority 2010, dated 2013).

Key:
Format in all cases: biochemical
[1] = target: T1, Human Activated Protein C (h aPC) (Homo sapiens, UniProt P04070); assay: Inhibition of human activated protein C (reference enzyme); conditions: Pefachrome PCa substrate
T1 construct: purchased Enzyme Research Laboratories
Protocol: (§1) The inhibitory effect against the individual purified enzymes was determined in analogy to a previously disclosed method (Stürzebecher et al., J. Med. Chem., 40, 3091-3099 (1997)).
(§2) The release of p-nitroaniline (p-NA, the chromogenic product of the proteolytic activity), was determined by change in absorbance at 405 nm. The equilibrium rates were used to calculate the inhibitor/enzyme dissociation constant (Ki values) by parameter fitting in accordance with the rate equation for competitive inhibition using GraFit (version 4 from Erithacus). The results are reported as Ki values (nanomolar) in table 7 and are the average of at least three determinations.
(§3) Dissociation constants were calculated as described herein.

[2] = target: T2, human factor IIa (human alpha-thrombin) (Homo sapiens, UniProt P00734); assay: Inhibition constants for human factor IIa, chromogenic substrate assay; conditions: 25° C., Pefachrome tPA substrate, average of at least three determinations; read-out: Ki h FIIa
T2 construct: human alpha-thrombin from Enzyme Research Laboratories; purchased Enzyme Research Laboratories
Protocol: as §1
(§4) 200 μL of TBS (0.05 M trishydroxymethylaminomethane; 0.154 M NaCl, 2% ethanol, pH 8.0)
as §2

[3] = target: T3, Human tissue-type plasminogen activator (h t-PA) (Homo sapiens, UniProt P00750); assay: Inhibition of human tissue-type plasminogen activator (reference enzyme); conditions: Pefachrome tPA substrate; read-out: Ki h t-PA
T3 construct: purchased Boehringer Ingelheim Actilyse
Protocol: The equilibrium rates were used to calculate the inhibitor/enzyme dissociation constant (Ki values) by parameter fitting in accordance with the rate equation for competitive inhibition using GraFit (version 4 from Erithacus).
as §3

[4] = target: T4, Human urinary kallikrein (h uKK) (Homo sapiens, UniProt P06870); assay: Inhibition of human urinary kallikrein (reference enzyme); conditions: S-2266 substrate
T4 construct: purchased Lee Biosolutions
Protocol: as §1, §2, §3

[5] = target: T5, Human plasma kallikrein (h PK) (Homo sapiens, UniProt P03952); assay: Inhibition of human plasma kallikrein (reference enzyme); conditions: S2302 substrate
T5 construct: purchased Enzyme Research Laboratories
Protocol: as §1, §2, §3

[6] = target: T6, Subcomponent "r" of Human Complement Component 1 (h C1r) (Homo sapiens, UniProt P00736); assay: Inhibition of human C1r (reference enzyme); conditions: S-2314 substrate; read-out: Ki h Clr
T6 construct: purchased Calbiochem
T6 sequence (P00736 464-705 limits assumed): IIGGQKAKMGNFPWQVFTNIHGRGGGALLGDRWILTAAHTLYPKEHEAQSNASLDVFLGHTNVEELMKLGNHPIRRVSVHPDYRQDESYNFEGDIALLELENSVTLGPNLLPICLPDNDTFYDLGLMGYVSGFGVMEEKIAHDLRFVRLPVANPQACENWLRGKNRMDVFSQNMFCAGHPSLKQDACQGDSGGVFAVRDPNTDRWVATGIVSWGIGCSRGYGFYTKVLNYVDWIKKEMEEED
T6 sequence (P00736 18-463 partner limits assumed): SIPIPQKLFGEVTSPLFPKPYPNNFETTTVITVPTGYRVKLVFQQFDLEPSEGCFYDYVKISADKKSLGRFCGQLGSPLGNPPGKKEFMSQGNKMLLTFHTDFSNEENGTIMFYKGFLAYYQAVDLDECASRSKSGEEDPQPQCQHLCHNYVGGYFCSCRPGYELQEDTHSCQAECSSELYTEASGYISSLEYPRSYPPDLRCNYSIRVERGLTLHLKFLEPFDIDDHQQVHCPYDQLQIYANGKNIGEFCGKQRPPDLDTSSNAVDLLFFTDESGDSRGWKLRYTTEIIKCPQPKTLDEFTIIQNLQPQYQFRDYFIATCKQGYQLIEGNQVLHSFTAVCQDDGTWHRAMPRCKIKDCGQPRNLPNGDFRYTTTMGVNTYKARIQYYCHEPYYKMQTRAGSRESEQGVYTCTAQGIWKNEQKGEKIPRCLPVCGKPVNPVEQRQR
Protocol: as §1, §2, §3

[7] = target: T7, Human plasmin (h plasmin) (Homo sapiens, UniProt P00747); assay: Inhibition of human plasmin (reference enzyme); conditions: Chromozym PL substrate
T7 construct: purchased Calbiochem
Protocol: as §1, §2, §3

[8] = target: T8, Subcomponent "s" of Human Complement Component 1 (h C1s) (Homo sapiens, UniProt P09871); assay: Inhibition of human C1s (reference enzyme); conditions: S-2314 substrate; read-out: Ki h Cls
T8 construct: purchased Calbiochem
T8 sequence (P09871 438-688 limits assumed): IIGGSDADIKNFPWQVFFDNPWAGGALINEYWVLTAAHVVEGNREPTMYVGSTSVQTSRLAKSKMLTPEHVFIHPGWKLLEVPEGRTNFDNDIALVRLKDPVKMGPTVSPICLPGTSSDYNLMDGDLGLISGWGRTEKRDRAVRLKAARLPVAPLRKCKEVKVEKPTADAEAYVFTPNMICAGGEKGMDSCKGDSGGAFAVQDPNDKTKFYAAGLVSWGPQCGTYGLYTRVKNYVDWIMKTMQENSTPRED
T8 sequence (P09871 16-437 partner limits assumed): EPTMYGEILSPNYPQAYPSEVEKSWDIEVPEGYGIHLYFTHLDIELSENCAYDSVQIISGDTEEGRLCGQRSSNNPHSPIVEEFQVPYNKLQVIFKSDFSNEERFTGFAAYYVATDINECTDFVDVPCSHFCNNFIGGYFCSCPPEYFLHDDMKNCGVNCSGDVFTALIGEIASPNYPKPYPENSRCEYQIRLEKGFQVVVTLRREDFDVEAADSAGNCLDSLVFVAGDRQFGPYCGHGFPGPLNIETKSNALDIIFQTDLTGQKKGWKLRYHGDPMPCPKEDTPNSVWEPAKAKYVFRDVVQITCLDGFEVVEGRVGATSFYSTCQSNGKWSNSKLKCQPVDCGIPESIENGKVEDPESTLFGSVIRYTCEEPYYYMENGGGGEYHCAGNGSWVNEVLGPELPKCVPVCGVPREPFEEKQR
Protocol: as §1, §2, §3

[9] = target: T9, Human urokinase type plasminogen activator (h u-PA) (Homo sapiens, UniProt P00749); assay: Inhibition of human urokinase type plasminogen activator (reference enzyme); conditions: H-Glu-Gly-Arg-pNA substrate
T9 construct: purchased MEDAC GmbH Urokinase HS medac
Protocol: as §1, §2, §3

[10] = target: T10, human Factor Xa (Homo sapiens, UniProt P00742); assay: Inhibition constants for human factor Xa, chromogenic substrate assay; conditions: 25° C., Pefachrome FXa substrate, average of at least three determinations; read-out: Ki h FXa
T10 construct: human Factor Xa from Enzyme Research Laboratories; purchased Enzyme Research Laboratories
Protocol: as §1, §4, §2

T5 sequence (P03952 391-638 limits assumed): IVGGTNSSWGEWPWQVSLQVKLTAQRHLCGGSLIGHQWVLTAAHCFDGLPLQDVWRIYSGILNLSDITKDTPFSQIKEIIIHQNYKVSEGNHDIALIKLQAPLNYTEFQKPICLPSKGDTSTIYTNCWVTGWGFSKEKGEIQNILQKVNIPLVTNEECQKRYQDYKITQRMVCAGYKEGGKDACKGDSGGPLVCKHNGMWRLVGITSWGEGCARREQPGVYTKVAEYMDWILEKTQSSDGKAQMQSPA
T5 sequence (P03952 20-390 partner limits assumed): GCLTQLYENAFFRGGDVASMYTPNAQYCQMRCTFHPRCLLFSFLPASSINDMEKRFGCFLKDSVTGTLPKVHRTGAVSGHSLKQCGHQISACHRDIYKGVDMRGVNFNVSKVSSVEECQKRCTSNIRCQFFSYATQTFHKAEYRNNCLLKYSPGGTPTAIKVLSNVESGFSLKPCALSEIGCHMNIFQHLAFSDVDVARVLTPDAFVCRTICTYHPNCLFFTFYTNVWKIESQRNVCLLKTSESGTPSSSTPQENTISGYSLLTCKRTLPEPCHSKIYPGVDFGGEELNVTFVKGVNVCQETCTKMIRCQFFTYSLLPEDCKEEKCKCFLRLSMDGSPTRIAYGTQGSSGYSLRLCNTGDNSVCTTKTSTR
T7 sequence (P00747 581-810 limits assumed): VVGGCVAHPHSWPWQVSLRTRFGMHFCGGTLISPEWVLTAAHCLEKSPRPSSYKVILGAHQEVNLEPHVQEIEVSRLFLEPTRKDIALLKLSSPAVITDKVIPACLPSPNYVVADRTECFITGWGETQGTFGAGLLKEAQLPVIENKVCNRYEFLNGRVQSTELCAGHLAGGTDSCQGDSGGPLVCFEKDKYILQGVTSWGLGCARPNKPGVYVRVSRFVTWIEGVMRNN
T7 sequence (P00747 97-580 partner limits assumed): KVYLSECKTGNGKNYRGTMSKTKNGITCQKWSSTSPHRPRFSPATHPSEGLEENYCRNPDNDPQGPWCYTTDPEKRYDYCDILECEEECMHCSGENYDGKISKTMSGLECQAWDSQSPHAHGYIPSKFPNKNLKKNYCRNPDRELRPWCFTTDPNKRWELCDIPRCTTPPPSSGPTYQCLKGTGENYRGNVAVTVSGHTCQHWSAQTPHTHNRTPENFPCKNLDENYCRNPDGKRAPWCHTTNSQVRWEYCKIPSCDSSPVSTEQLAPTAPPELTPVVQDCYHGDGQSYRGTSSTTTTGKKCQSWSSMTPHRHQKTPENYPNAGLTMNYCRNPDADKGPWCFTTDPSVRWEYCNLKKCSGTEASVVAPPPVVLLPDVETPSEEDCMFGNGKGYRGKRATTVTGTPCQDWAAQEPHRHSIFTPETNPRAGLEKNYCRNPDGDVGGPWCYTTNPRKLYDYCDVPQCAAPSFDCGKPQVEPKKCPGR
T1 sequence (P04070 212-450 limits assumed): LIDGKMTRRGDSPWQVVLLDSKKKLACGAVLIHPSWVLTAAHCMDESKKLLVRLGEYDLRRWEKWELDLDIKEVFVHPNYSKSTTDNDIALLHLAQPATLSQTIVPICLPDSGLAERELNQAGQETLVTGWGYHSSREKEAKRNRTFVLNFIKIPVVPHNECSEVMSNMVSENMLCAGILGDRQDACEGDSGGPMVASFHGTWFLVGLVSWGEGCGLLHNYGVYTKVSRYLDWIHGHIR
T1 sequence (P04070 43-197 partner limits assumed): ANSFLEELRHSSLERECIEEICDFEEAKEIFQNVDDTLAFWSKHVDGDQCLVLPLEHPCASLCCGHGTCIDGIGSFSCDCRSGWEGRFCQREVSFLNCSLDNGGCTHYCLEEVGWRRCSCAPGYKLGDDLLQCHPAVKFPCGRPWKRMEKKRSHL
T4 sequence (P06870 25-262): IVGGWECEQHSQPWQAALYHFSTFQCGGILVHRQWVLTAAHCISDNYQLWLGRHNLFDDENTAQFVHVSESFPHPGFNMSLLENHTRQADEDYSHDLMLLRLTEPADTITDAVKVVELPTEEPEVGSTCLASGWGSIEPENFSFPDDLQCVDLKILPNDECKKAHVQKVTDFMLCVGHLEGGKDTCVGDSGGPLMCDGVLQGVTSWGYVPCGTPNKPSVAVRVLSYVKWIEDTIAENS
T3 sequence (P00750 36-562): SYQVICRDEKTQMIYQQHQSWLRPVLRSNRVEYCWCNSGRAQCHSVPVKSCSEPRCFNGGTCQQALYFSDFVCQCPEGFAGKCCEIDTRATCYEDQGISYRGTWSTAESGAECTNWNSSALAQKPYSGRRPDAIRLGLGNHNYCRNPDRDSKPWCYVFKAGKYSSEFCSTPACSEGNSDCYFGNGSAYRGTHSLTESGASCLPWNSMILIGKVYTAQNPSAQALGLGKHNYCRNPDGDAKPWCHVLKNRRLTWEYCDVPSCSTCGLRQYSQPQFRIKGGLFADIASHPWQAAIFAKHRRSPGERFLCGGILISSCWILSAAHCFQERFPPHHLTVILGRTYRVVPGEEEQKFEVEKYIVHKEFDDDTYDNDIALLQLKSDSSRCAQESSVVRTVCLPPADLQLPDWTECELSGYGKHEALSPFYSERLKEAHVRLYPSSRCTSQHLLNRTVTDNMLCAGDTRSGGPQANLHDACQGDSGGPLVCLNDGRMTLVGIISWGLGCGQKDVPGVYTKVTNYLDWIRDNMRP
T10 sequence (P00742 235-488 limits assumed): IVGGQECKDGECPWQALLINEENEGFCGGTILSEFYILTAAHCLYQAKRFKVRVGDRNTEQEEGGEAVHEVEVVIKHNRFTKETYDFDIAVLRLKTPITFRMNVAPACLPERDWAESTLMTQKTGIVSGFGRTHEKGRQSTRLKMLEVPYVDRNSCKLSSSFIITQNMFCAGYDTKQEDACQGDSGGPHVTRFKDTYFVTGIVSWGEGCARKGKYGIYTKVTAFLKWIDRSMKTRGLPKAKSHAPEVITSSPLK
T10 sequence (P00742 41-179 partner limits assumed): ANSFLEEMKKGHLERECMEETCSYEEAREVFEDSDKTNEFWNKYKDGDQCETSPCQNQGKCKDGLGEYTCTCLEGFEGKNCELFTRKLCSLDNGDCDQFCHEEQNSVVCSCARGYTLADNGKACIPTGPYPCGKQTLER

| SMILES | Ki [1] | Ki [2] | Ki [3] | Ki [4] | Ki [5] | Ki [6] | Ki [7] | Ki [8] | Ki [9] | Ki [10] |
| --- | --- | --- | --- | --- | --- | --- | --- | --- | --- | --- |
| NCc1ccc(Cl)cc1CNC(=O)[C@@H]1CCCN1C(=O)[C@@H](CC(=O)N1CC[C@@H](O)C1)NS(=O)(=O)Cc1ccccc1 [Compound 2.9] | > 25 µM | 0.0012 µM | > 20 µM | > 200 µM | 0.93 µM | > 50 µM | > 10 µM | > 50 µM | > 100 µM | 0.0025 µM |
| NCc1ccc(Cl)cc1CNC(=O)[C@@H]1CCCN1C(=O)[C@@H](CC(=O)N1CC[C@H](O)C1)NS(=O)(=O)Cc1ccccc1 [Compound 2.10] | > 20 µM | 0.0009 µM | > 10 µM | > 100 µM | 0.83 µM | > 20 µM | > 10 µM | > 20 µM | > 100 µM | 0.0011 µM |
| NCc1ccc(Cl)cc1CNC(=O)[C@@H]1CCCN1C(=O)[C@@H](CC(=O)N1CC[C@@H](N)C1)NS(=O)(=O)Cc1ccccc1 [Compound 2.11] | > 50 µM | 0.0059 µM | > 100 µM | > 50 µM | 3.35 µM | > 50 µM | > 100 µM | > 100 µM | > 20 µM | 0.014 µM |
| NCc1ccc(Cl)cc1CNC(=O)[C@@H]1CCCN1C(=O)[C@@H](CC(=O)N1CC[C@H](N)C1)NS(=O)(=O)Cc1ccccc1 [Compound 2.12] | > 25 µM | 0.0029 µM | > 100 µM | > 20 µM | 1.69 µM | > 100 µM | > 25 µM | > 30 µM | > 50 µM | 0.014 µM |
| NCc1ccc(Cl)cc1CNC(=O)[C@@H]1CNCCN1C(=O)[C@@H](CC(=O)N1CCCCC1)NS(=O)(=O)Cc1ccccc1 [Compound 2.13] | > 30 µM | 0.0051 µM | > 40 µM | > 20 µM | 8.56 µM | > 30 µM | > 100 µM | > 60 µM | > 100 µM | 0.0014 µM |
| NCc1ccc(Cl)cc1CNC(=O)[C@@H]1CCCCN1C(=O)[C@@H](CC(=O)N1CCOCC1)NS(=O)(=O)Cc1ccccc1 [Compound 2.14] | > 20 µM | 0.0003 µM | > 50 µM | > 20 µM | 4.53 µM | > 50 µM | > 50 µM | > 50 µM | > 50 µM | 0.0083 µM |
| NCc1ccc(Cl)cc1CNC(=O)[C@@H]1CCCCN1C(=O)[C@@H](CCC(=O)N1CCOCC1)NS(=O)(=O)Cc1ccccc1 [Compound 2.15] | > 10 µM | 0.0007 µM | > 10 µM | > 10 µM | 7.2 µM | > 20 µM | > 5 µM | > 50 µM | > 50 µM | 0.0094 µM |
| CN(CC1CCNCC1)C(=O)C[C@@H](NS(=O)(=O)Cc1ccccc1)C(=O)N1CCC[C@H]1C(=O)NCc1cc(Cl)ccc1CN [Compound 2.16] | > 100 µM | 0.0003 µM | > 50 µM | > 50 µM | 0.417 µM | > 10 µM | > 5 µM | > 50 µM | > 100 µM | 0.0015 µM |
| CC(=O)N1CCC(CN(C)C(=O)C[C@@H](NS(=O)(=O)Cc2ccccc2)C(=O)N2CCC[C@H]2C(=O)NCc2cc(Cl)ccc2CN)CC1 [Compound 2.17] | > 40 µM | 0.0002 µM | > 100 µM | > 20 µM | 0.417 µM | > 10 µM | > 5 µM | > 100 µM | > 40 µM | 0.0037 µM |
| CN1CCN(C(=O)C[C@@H](NS(=O)(=O)Cc2ccccc2)C(=O)N2CCC[C@H]2C(=O)NCc2cc(Cl)ccc2CN)CC1 [Compound 2.18] | > 100 µM | 0.0015 µM | > 50 µM | > 20 µM | 0.17 µM | > 25 µM | > 10 µM | > 50 µM | > 100 µM | 0.0079 µM |
| NCc1ccc(Cl)cc1CNC(=O)[C@@H]1CCCN1C(=O)[C@@H](CC(=O)N1CCNCC1)NS(=O)(=O)Cc1ccccc1 [Compound 2.19] | > 30 µM | 0.0024 µM | > 5 µM | > 5 µM | 1.02 µM | > 50 µM | > 4.6 µM | > 100 µM | > 15 µM | 0.0015 µM |
| O=C(NCc1cc(Cl)ccc1-n1cnnn1)[C@@H]1CCCN1C(=O)[C@@H](CCC(=O)N1CCOCC1)NS(=O)(=O)Cc1ccccc1 [Compound 2.20] | > 30 µM | 0.0031 µM | > 15 µM | > 50 µM | 0.74 µM | > 30 µM | 7.27 µM | > 75 µM | > 100 µM | 0.0038 µM |
| O=C(NCc1cc(Cl)ccc1-n1cnnn1)[C@@H]1C[C@H](O)CN1C(=O)[C@@H](CCC(=O)N1CCOCC1)NS(=O)(=O)Cc1ccccc1 [Compound 2.21] | > 50 µM | 0.159 µM | > 20 µM | > 100 µM | 1.2 µM | > 100 µM | 10.8 µM | > 50 µM | > 100 µM | 0.0053 µM |
| NCc1ccc(Cl)cc1CNC(=O)[C@@H]1C[C@H](O)CN1C(=O)[C@@H](CCC(=O)N1CCOCC1)NS(=O)(=O)Cc1ccccc1 [Compound 2.22] | > 25 µM | 0.085 µM | > 100 µM | > 100 µM | 2.69 µM | > 100 µM | > 100 µM | > 50 µM | > 100 µM | 0.00068 µM |
| N[C@H]1C[C@@H](C(=O)NCc2cc(Cl)ccc2-n2cnnn2)N(C(=O)[C@@H](CCC(=O)N2CCOCC2)NS(=O)(=O)Cc2ccccc2)C1 [Compound 2.23] | 6.7 µM | 0.0067 µM | 4.8 µM | > 50 µM | 0.39 µM | > 40 µM | 1.99 µM | > 70 µM | > 100 µM | 0.00032 µM |
